Test results: US20130302278A1, “USE OF TLR AGONISTS AND/OR TYPE 1 INTERFERONS TO ALLEVIATE TOXICITY OF TNF-R AGONIST THERAPEUTIC REGIMENS” (Immurx Inc., priority 2007, published 2013)

Legend:
[1] = Serum transaminase (ALT, AST) analysis of hepatocellular injury; type: in vivo, mice; details: 100 μg each i.v., 24 to 72 hours
Experimental: (§1) FIG. 5 This figure contains experiments that reveal that the hepatic toxicity associated with CD40 monotherapy is reversed with TLR7 agonism. FIG. 5(A, B) contain kinetic analysis of serum transaminases. Mice were treated with PBS, 100 μg CD40, 100 μg TLR7*, or both intravenously. Serum was isolated at various time points afterward, and serum levels of alanine transaminase (A) or aspartate transaminase (B) were measured as described. Data are representative of 3 independent experiments, with n=3 to 8 mice per group, per time point. (C-F) Histologic analysis of livers treated with PBS (C), […] CD40 (D), 100 μg TLR7* (E), or 100 μg CD40 and 100 μg TLR7*(F) for 48 hours. (G) Semiquantitative assessment of histopathologic changes in livers from mice treated as above for 48 hours. […]
(§2) Hepatocellular injury was biochemically assessed by measuring serum liver enzyme activity. […] Serum was harvested 24 to 72 hours later and levels of alanine aminotransferase (ALT) and aspartate aminotransferase (AST) were determined by standard clinical assays at the National Jewish Medical Center Core Lab (Denver, Colo.). For histologic analysis, livers from mice treated as above were fixed in buffered formalin, embedded in paraffin, sectioned, and stained with hematoxylin and eosin (H&E) prior to being coded and scored on a 0 to 4 scale in a blinded fashion. […]

[2] = test system: TRP2-specific CD8^+ T cells; assay: Degranulation (CD107a) and expansion of CD8+ T cells in peripheral blood 7 days after immunization; type: in vivo, C57BL/6 mice; details: 7 days after i.v. immunization, 100 μg each, groups given with V peptide
Description: Seven days later, mice were bled and cells were restimulated in vitro with TRP2(180-188) to assess the ability to produce IFN and translocate CD107a as described in “Methods.” Lymphocytes were identified by forward and side scatter and subsequently gated on all CD8^+ events. (A) Representative dot plots from vaccinated mice. The numbers in the upper right corners indicate the frequency of CD8^+ T cells that are positive for IFN and CD44 (top row) or IFN and CD107a (bottom row). (B) Percentage of peripheral blood lymphocytes expressing the CD8 antigen. P.001 by one-tailed ANOVA (C) Quantification of the percentages of CD8^+ cells that degranulated in response to peptide restimulation. In all cases, data presented are representative of at least 3 independent experiments. […] P.001 by one-tailed ANOVA.
Cells from lung, spleen, or peripheral blood (peripheral blood lymphocytes [PBLs]) were incubated with 1 μg/mL Ova(257-264) or TRP2(180-188) peptide plus 10 U/mL IL-2 and 3 μg/mL brefeldin A in complete medium at 37° C. for 5 to 18 hours. […] The percentage of IFN^+ cells was calculated by subtracting the background observed with the irrelevant peptide control.

[3] = Macroscopic and histologic analysis of livers (H&E, 0 to 4 score); type: in vivo, mice
Experimental: as §1, §2

memory CD8^+ T cells = assay: Memory CD8+ T-cell function (intracellular cytokine staining) 60+ days after vaccination; type: in vivo, mice; details: spleen and lung
Experimental: In the experiments depicted in FIG. 2, mice were immunized with 100 μg each of V peptide, CD40, and S-27609 in combinations as indicated. Memory CD8S functionality was assessed 65 days later. (A) Representative dot plots of IFN secretion by memory CD8^+ T cells isolated from spleens and lungs of vaccinated mice. Dot plots are gated on live CD8^+ cells, and numbers indicate the percentage of cells positive for both IFN and CD44. (B) Memory CD8^+ T-cell cytolytic activity was assessed by performing an in vivo cytotoxicity assay. Numbers reflect the percentage of antigen-specific lysis. (C,D) Quantification of relative and absolute numbers of memory CD8 cells expressing IFN in the spleen (C) and lung (D). Absolute numbers of positive cells were determined by multiplying the relative percentage of each cell population by the total number of cells isolated from each tissue. (E) Quantification of the in vivo cytotoxicity assay presented in panel B. P.001 by one-tailed ANOVA. […] Cells from panel F were analyzed for the ability to produce TNF and IL-2. […]
Mice were immunized with 100 μg each of V peptide, CD40, and S-27609 in combinations as indicated. Memory CD8 functionality was assessed 65 days later. […] (B) Memory CD8^+ T-cell cytolytic activity was assessed by performing an in vivo cytotoxicity assay. […] (E) Quantification of the in vivo cytotoxicity assay presented in panel B. P.001 by one-tailed ANOVA. […]

B16.F10 melanoma cells = assay: Therapeutic vaccination against metastatic B16.F10 melanoma (lung metastases, survival)
Experimental: Therein, C57BL/6 mice were challenged with 10^5 metastatic B16.F10 melanoma cells intravenously. Four days later, mice were vaccinated with 100 μg of the tumor-associated antigen V, 100 μg CD40 FGK45, and 100 μg S-27609 in combinations as indicated. After 24 days, mice were killed, lungs were removed, and metastatic surface tumor nodules were enumerated with the aid of a dissecting microscope.
Mice were injected with 10^5 B16.F10 melanoma tumor cells intravenously to establish lung metastases. Four days later, naive or tumor-bearing mice were intravenously vaccinated with 100 μg V peptide, 100 μg anti-CD40, and 100 μg of the TLR7 agonist S-27609 in various combinations as indicated. Lungs were harvested approximately 20 days later, and metastases were enumerated with the aid of a dissection microscope. Alternatively, mice were monitored for survival over the next 90 days.
C57BL/6 mice were challenged with 10^5 metastatic B16.F10 melanoma cells intravenously. Four days later, mice were vaccinated with 100 μg of the tumor-associated antigen V, 100 μg CD40 FGK45, and 100 μg S-27609 in combinations as indicated. After 24 days, mice were killed, lungs were removed, and metastatic surface tumor nodules were enumerated with the aid of a dissecting microscope.

Molecule	plasma levels of ALT and AST [1]	CD8^+ cells expressing CD107a (degranulation after peptide restimulation) [2]	histologic analysis of liver ([3]; 48 hours after 100 μg each i.v.)	semiquantitative score of histologic liver damage ([3]; 48 hours, P=0.026, TLR7* added to CD40)	persisting antigen-specific CD8^+ effector population (memory CD8^+ T cells)	control of tumor progression (number of lung tumor nodules) (B16.F10 melanoma cells; 10^5 B16.F10 i.v., treatment 4 days later, lungs at 24 days)	mean survival time (B16.F10 melanoma cells; all mice succumbed to lung failure) [days]
Cc1nc2c(N)nc3ccccc3c2n1CC(C)(C)O [TLR7*]	no effect on enzyme levels	approximately 2%	minor inflammation without any observable coagulative necrosis	significantly reduces liver toxicity associated with CD40 monotherapy	failed to induce a significant pool		
SIYDFFVWL [tumor antigen]						ineffective in controlling tumor progression	29
